From patent US20200131176A1, “SELECTIVE INHIBITORS OF CLINICALLY IMPORTANT MUTANTS OF THE EGFR TYROSINE KINASE” (CS Pharmatech Limited, priority 2017, published 2020)
Values joined by “and” are separate entries in the source; they are usually repeats but may differ in a detail not shown here. Equal values may be shown once. Where a name gives a salt, the structure may show the parent alone. Read-outs that look alike come from different tables or passages of the source.

Columns and labels:
H1975 cells = test: H1975 inhibition assay (cell proliferation, CellTiter-Glo, 72 h); assay type: cell-based, human; conditions: Homo sapiens, NCI-H1975, 72 h, cellular proliferation, double mutant EGFR, read-out: NCI-H1975 IC50 (nM) DM
Experimental: H1975 Inhibition Assay (Cell Proliferation).
(§1) Test compounds were dissolved in DMSO at 30 mM.
(§2) The final concentration was 1,000 cells/well. Add medium only as low control.
(§3) After 72 hours incubation, remove the plates from incubator and equilibrate at room temperature for 15 minutes. Incubate the CellTiter Glo reagents (Promega, G9243) at 37° C. before the experiment. The buffer was equilibrated to room temperature and used to dissolve the substrate. To determine the cell viability, add 40 μL of CellTiter-Glo reagent into each well to be detected (at 1:1 to culture medium). Then the place the plates at room temperature for 30 min followed by read on EnSpire (PerkinElmer).
(§4) For estimation of IC50, the luminescence readout are transformed to % Inhibition by applying the following equation:

A431 cells = test: A431 inhibition assay (cell proliferation, CellTiter-Glo, 72 h); assay type: cell-based, human; conditions: Homo sapiens, A-431, 72 h, cellular proliferation, wild type EGFR, read-out: A431 IC50 (nM) WT
Experimental: (§5) Then incubate the flasks at 37° C. until the cells detach.
as §1, §2, §3, §4

PC-9 cells = test: PC-9 growth inhibition assay (cell proliferation, CellTiter-Glo, 72 h); assay type: cell-based, human; conditions: Homo sapiens, PC-9, 72 h, cellular proliferation, PC9 cells, single mutant EGFR, read-out: PC9 IC50 (nM) SM
Experimental: as §5, §1, §2, §3, §4

[1] = target: T1, Exon 19 deletion EGFR (activating single mutant) in PC-9 cells (Homo sapiens, UniProt P00533, DEL746-750); test: Exon 19 deletion EGFR PC-9 cellular autophosphorylation assay (p-EGFR ELISA); assay type: cell-based; conditions: PC9, 2 h treatment, read-out: SM (PC9) IC50
T1 construct: cellular phosphorylation of endogenous p-EGFR; host or cells: PC9 (PC-9) human lung cell line
T1 sequence (P00533 with tags, fused parts or gaps DEL746-750): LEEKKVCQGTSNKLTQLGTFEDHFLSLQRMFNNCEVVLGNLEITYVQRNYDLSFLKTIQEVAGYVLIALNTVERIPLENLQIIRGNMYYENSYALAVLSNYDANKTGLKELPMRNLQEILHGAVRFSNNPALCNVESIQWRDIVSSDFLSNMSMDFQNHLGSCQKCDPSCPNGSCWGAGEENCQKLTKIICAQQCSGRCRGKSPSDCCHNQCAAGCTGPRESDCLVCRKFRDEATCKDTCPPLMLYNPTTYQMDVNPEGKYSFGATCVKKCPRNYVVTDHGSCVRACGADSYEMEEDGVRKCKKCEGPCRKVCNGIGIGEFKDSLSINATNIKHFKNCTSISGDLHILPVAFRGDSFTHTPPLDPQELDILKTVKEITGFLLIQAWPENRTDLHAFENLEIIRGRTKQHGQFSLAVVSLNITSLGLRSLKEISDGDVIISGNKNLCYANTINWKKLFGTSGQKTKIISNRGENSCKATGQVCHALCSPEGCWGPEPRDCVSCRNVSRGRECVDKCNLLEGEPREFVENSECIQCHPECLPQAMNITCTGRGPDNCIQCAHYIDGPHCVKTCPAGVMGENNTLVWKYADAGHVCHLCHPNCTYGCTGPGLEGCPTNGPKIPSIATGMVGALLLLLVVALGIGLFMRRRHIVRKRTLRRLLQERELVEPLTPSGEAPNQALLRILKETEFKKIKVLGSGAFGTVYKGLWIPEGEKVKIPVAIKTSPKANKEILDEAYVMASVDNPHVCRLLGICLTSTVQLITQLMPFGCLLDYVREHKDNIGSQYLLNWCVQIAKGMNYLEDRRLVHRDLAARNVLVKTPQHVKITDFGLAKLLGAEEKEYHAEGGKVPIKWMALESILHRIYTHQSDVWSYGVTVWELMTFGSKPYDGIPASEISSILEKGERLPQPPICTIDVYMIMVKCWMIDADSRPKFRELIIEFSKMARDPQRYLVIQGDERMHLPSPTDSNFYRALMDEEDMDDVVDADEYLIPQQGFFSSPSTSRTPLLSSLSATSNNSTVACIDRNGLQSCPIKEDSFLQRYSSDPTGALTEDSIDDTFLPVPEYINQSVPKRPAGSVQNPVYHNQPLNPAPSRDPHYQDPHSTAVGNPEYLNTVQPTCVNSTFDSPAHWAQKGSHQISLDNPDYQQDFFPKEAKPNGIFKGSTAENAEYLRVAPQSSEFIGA
Experimental: The human lung cell line PC9 (Exon 19 deletion EGFR) were obtained from the American type Culture Collection. […] Cells were grown in a humidified incubator at 37° C. with 5% CO2, Assays to measure cellular phosphorylation of endogenous p-EGFR in cell Iysates were carried out according to the protocol described in the R&D Systems DuoSet IC Human Phospho-EGF R ELISA (R&D Systems catalogue number # DYCI095). 40 μL of cells were seeded (10000 cells/well) in growth medium in Coming black, clear-bottomed 384-well plates and incubated at 37° C. with 5% CO2 overnight. […] Plates were incubated for a further 2 h, then following aspiration of medium, 40 μL× lysis buffer is added to each well. Greiner black high bind 384 well plates were coated with capture antibody and then blocked with 3% BSA. Following removal of block, 15 μL of lysate are transferred to the Greiner black high bind 384 well plates and incubated for 2 hours. Following aspiration and washing of the plates with PBS, 20 μL of detection antibody were added and incubated for 2 hours. […] The data obtained with each compound are exported into a suitable software package (such as Origin) to perform curve fitting analysis.

[2] = target: T2, L858R/T790M double mutant EGFR in H1975 cells (Homo sapiens, UniProt P00533, L858R/T790M); test: L858R/T790M double mutant H1975 autophosphorylation inhibition assay (ELISA); assay type: cell-based; conditions: cellular EGFR autophosphorylation, H1975, 2 h treatment; read-out: DM (H1975) IC50
T2 construct: endogenous in cells; host or cells: H1975 cells
T2 sequence (P00533 25-1210 T790M/L858R): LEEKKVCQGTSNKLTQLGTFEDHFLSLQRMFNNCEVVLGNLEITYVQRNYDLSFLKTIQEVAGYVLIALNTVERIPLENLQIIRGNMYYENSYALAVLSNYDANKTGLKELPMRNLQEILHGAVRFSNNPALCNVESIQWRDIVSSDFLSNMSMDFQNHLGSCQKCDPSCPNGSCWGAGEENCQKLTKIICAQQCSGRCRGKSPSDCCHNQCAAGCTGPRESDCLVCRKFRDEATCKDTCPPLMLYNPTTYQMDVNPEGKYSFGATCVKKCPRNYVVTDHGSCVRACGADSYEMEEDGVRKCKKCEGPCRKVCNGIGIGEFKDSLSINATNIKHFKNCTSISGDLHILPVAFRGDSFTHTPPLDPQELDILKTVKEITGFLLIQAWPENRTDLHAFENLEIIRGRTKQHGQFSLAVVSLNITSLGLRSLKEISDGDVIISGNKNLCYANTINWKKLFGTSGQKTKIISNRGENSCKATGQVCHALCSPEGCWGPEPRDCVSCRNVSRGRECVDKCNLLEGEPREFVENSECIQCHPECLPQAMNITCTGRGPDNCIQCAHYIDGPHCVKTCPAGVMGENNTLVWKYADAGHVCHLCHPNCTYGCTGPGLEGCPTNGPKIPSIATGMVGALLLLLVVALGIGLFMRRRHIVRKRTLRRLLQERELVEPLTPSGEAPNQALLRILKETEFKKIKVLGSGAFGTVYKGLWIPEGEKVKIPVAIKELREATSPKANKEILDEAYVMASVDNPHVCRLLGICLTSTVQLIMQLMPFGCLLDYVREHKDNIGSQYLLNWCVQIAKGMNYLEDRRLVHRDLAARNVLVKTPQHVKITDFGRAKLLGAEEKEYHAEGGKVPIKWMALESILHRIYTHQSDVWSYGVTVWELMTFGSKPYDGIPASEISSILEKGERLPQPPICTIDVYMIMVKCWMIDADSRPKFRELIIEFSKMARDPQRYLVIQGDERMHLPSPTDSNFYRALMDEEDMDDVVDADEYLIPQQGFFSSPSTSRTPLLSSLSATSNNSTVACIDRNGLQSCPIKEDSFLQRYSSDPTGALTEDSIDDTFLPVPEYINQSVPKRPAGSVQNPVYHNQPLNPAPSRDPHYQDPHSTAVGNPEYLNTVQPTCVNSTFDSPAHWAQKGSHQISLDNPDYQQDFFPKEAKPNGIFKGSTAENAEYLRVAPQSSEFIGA

[3] = target: Wild type EGFR in A431 cells (Homo sapiens, UniProt P00533); conditions: WT (A431) IC50 nM, cellular EGFR autophosphorylation, A431, 2 h treatment then EGF stimulation 10 min
Chain of Wild type EGFR in A431 cells (P00533 25-1210): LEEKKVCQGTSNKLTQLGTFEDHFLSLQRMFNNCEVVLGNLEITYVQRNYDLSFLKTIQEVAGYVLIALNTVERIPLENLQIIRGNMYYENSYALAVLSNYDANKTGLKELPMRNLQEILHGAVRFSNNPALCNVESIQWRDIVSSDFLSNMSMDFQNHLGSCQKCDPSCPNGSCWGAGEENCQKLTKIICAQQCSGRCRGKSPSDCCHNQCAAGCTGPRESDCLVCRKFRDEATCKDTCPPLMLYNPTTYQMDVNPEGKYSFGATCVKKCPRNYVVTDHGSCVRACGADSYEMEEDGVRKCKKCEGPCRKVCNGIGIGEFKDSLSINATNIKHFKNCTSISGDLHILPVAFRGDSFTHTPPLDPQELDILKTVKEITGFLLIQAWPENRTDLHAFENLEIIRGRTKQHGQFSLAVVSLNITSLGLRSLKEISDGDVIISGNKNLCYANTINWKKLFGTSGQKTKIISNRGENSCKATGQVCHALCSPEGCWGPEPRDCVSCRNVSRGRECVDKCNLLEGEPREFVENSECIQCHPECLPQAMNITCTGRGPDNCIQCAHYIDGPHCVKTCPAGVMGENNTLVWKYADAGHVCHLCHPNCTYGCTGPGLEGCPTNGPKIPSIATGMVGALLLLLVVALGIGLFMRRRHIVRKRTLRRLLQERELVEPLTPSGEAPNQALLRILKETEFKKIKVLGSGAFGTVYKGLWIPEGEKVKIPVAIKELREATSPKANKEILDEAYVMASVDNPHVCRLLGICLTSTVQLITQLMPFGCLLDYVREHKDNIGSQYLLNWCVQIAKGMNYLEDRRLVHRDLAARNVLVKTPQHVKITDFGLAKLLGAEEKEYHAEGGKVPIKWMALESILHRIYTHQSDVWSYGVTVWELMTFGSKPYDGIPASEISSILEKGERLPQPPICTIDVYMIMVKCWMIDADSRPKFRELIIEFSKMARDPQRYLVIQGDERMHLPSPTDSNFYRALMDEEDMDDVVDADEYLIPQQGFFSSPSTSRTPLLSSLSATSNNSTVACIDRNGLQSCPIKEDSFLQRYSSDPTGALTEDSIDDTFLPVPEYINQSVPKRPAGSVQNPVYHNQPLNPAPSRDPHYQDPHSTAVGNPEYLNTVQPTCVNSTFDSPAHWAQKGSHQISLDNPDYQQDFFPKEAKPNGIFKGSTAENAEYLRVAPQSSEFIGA

[4] = target: hERG channel (HEK 293 cell line stably expressing hERG channel) (Homo sapiens, UniProt Q12809); test: cell-based
Chain of hERG channel (HEK 293 cell line stably expressing hERG channel) (Q12809 whole entry): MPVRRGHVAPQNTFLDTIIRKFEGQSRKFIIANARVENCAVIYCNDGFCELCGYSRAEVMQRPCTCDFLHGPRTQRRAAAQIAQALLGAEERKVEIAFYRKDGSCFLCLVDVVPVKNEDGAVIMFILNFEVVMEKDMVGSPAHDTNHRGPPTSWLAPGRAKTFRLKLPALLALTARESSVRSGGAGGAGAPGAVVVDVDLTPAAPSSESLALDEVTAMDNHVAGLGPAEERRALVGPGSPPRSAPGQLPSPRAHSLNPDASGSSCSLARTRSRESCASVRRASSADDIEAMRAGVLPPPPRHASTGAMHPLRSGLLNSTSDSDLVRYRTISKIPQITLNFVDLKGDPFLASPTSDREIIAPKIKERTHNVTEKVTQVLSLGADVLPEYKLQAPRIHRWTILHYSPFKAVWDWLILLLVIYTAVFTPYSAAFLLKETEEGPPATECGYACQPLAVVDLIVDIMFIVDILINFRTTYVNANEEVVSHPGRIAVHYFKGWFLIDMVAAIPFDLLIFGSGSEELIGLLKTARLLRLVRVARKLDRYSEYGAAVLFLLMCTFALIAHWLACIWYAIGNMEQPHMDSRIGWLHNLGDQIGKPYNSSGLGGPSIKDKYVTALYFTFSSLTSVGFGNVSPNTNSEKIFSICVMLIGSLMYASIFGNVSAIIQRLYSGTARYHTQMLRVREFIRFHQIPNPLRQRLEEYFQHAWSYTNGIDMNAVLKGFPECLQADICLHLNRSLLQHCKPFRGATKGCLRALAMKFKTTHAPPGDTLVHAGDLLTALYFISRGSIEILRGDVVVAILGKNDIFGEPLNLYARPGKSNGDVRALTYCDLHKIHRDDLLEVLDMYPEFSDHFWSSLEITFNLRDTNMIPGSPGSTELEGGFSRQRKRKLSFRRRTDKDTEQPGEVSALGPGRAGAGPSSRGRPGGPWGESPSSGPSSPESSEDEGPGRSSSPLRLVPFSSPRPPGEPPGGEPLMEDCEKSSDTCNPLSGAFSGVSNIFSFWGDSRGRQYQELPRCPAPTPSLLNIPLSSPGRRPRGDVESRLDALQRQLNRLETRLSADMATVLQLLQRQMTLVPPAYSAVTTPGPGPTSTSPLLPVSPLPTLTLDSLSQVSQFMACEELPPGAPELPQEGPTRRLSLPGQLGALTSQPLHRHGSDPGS

Mouse in vivo PK study [5] = conditions: male CD1 mice, 1 mg/kg IV; for F: 10 mg/kg PO; for AUC / clearance / half-life: mouse, plasma; for half-life: read-out: T1/2 (IV) (converted)
Experimental: To determine the drug concentration in plasma of the compounds of the present disclosure following intravenous and oral administration in male CD 1 Mice, pharmacokinetic profile and PK parameters were obtained.
Test animals: healthy male CD1 mice (body weight 20-30 g, 18 mice, free access to food and water), provided by Sibeifu laboratory. […]
Samples collection: the healthy animals were used, weighed the bodyweight and marked at tail and cage card prior to dosing. Blood samples (0.03 mL per time point) were collected from dorsal metatarsal vein at 0.083, 0.25, 0.5, 1, 2, 4, 8, 24 h post dose for IV group and at 0.25, 0.5, 1, 2, 4, 8, 24 h post dose for PO group, the terminal time point was collected from heart (˜0.3 mL). The blood samples were put into the tube with heparin-Na coated and then put on the cold box, centrifuged at 4° C. 4000 g, 5 minutes immediately after collecting all samples per time point to get plasma. The plasma samples were stored in a freezer at −75±15° C. prior to analysis.
The drug concentration was determined by LC/MS/MS method, and the PK parameters were observed as follows.

Mouse in vivo PK study [6] = conditions: mouse, plasma, male CD1 mice, 10 mg/kg PO; for half-life: read-out: T1/2 (PO) (converted)

## C=CC(=O)Nc1cc(Nc2nccc(-n3nc(N(C)C)c4cnc(C)cc43)n2)c(OC)cc1N(C)CCN(C)C [Example 1, N-(5-((4-(3-(Dimethylamino)-6-methyl-1H-pyrazolo[4,3-c]pyridin-1-yl)pyrimidin-2-yl)amino)-2-((2-(dimethylamino)ethyl)(methyl)amino)-4-methoxyphenyl)acrylamide]
H1975 cells
  IC50: 11.4 nM
A431 cells
  IC50: 2140 nM
PC-9 cells
  IC50: 9.24 nM

## C=CC(=O)Nc1cc(Nc2nccc(-c3cc4c(C)c[nH]c4c(C#N)n3)n2)c(OC)cc1N(C)CCN(C)C [Example 3, N-(5-((4-(7-Cyano-3-methyl-1H-pyrrolo[2,3-c]pyridin-5-yl)pyrimidin-2-yl)amino)-2-((2-(dimethylamino)ethyl)(methyl)amino)-4-methoxyphenyl)acryl amide]
H1975 cells
  IC50: 4.38 nM
A431 cells
  IC50: 1380 nM
[1]
  IC50: 0.00515 µM
[2]
  IC50: 0.00216 µM
[3]
  IC50: 63.1 nM
[4]
  IC50: 0.858 µM
PC-9 cells
  IC50: 4.15 nM

## C=CC(=O)Nc1cc(Nc2nccc(-n3nc(OC)c4ccccc43)n2)c(OC)cc1N(C)CCN(C)C [Example 8, N-(2-((2-(Dimethylamino)ethyl)(methyl)amino)-4-methoxy-5-((4-(3-methoxy-1H-indazol-1-yl)pyrimidin-2-yl)amino)phenyl)acrylamide]
H1975 cells
  IC50: 11.6 nM
A431 cells
  IC50: 1800 nM
[1]
  IC50: 0.0276 µM and 0.0294 µM
[2]
  IC50: 0.0207 µM and 0.0388 µM
[3]
  IC50: 327 nM and 464 nM
[4]
  IC50: 2.23 µM
PC-9 cells
  IC50: 18.6 nM

## C=CC(=O)Nc1cc(Nc2nccc(-c3cc(C#N)cc4c3cnn4C)n2)c(OC)cc1N(C)CCN(C)C [Example 9, N-(5-((4-(6-Cyano-1-methyl-1H-indazol-4-yl)pyrimidin-2-yl)amino)-2-((2-(dimethylamino)ethyl)(methyl)amino)-4-methoxyphenyl)acrylamide]
H1975 cells
  IC50: 3.05 nM
A431 cells
  IC50: 2200 nM
[1]
  IC50: 0.0109 µM
Mouse in vivo PK study [5]
  F: 23.1%
  AUC: 249 ng·h/mL
  clearance: 67 mL/min/kg
  half-life: 0.53 h
[2]
  IC50: 0.00571 µM
[3]
  IC50: 140 nM
[4]
  IC50: 1.01 µM
PC-9 cells
  IC50: 7.67 nM
Mouse in vivo PK study [6]
  AUC: 719 ng·h/mL
  Cmax: 159 ng/mL
  half-life: 3.55 h

## C=CC(=O)Nc1cc(Nc2nccc(-c3cccc4c3cnn4C)n2)c(OC)cc1N(C)CCN(C)C [Example 10, N-(2-((2-(Dimethylamino)ethyl)(methyl)amino)-4-methoxy-5-((4-(1-methyl-1H-indazol-4-yl)pyrimidin-2-yl)amino)phenyl)acrylamide]
H1975 cells
  IC50: 12.7 nM
A431 cells
  IC50: 695 nM
PC-9 cells
  IC50: 16.5 nM

## C=CC(=O)Nc1cc(Nc2nccc(-c3cnc4c(c3)c(C)cn4C)n2)c(OC)cc1N(C)CCN(C)C [Example 11, N-(5-((4-(1,3-Dimethyl-1H-pyrrolo[2,3-b]pyridin-5-yl)pyrimidin-2-yl)amino)-2-((2-(dimethylamino)ethyl)(methyl)amino)-4-methoxyphenyl) acrylamide]
H1975 cells
  IC50: 6.51 nM
A431 cells
  IC50: 2530 nM
Mouse in vivo PK study [5]
  F: 29.3%
  AUC: 153 ng·h/mL
  clearance: 114 mL/min/kg
  half-life: 1.1 h
[4]
  IC50: 5.78 µM
PC-9 cells
  IC50: 7.73 nM
Mouse in vivo PK study [6]
  AUC: 641 ng·h/mL
  Cmax: 97 ng/mL
  half-life: 5.06 h

## C=CC(=O)Nc1cc(Nc2nccc(-c3ccc4c(c3)c(C)cn4C)n2)c(OC)cc1N(C)CCN(C)C [Example 12, N-(5-((4-(1,3-Dimethyl-1H-indol-5-yl)pyrimidin-2-yl)amino)-2-((2-(dimethylamino)ethyl)(methyl)amino)-4-methoxyphenyl)acrylamide]
H1975 cells
  IC50: 16.8 nM
A431 cells
  IC50: 2430 nM
[1]
  IC50: 0.0118 µM
[2]
  IC50: 0.00773 µM
[3]
  IC50: 63.6 nM
[4]
  IC50: 4.08 µM
PC-9 cells
  IC50: 19.1 nM

## C=CC(=O)Nc1cc(Nc2nccc(-c3cnc4c(c3)c(Cl)cn4C)n2)c(OC)cc1N(C)CCN(C)C [Example 13, N-(5-((4-(3-Chloro-1-methyl-1H-pyrrolo[2,3-b]pyridin-5-yl)pyrimidin-2-yl)amino)-2-((2-(dimethylamino)ethyl)(methyl)amino)-4-methoxyphenyl)acrylamide]
H1975 cells
  IC50: 2.98 nM
Mouse in vivo PK study [5]
  F: 17.3%
  AUC: 169 ng·h/mL
  clearance: 99 mL/min/kg
  half-life: 1.52 h
[4]
  IC50: 1.65 µM
PC-9 cells
  IC50: 4.64 nM
Mouse in vivo PK study [6]
  AUC: 486 ng·h/mL
  Cmax: 63.5 ng/mL
  half-life: 6.1 h

## C=CC(=O)Nc1cc(Nc2nccc(-n3nc(NCC)c4ncccc43)n2)c(OC(F)F)cc1N(C)CCN(C)C [Example 20, N-(4-(Difluoromethoxy)-2-((2-(dimethylamino)ethyl)(methyl)amino)-5-((4-(3-(ethylamino)-1H-pyrazolo[4,3-b]pyridin-1-yl)pyrimidin-2-yl)amino)phenyl)acrylamide]
H1975 cells
  IC50: 1.08 nM
A431 cells
  IC50: 97.6 nM
[1]
  IC50: 0.00138 µM
[2]
  IC50: 0.00107 µM
[3]
  IC50: 19 nM
[4]
  IC50: 0.5 µM
PC-9 cells
  IC50: 0.91 nM

## C=CC(=O)Nc1cc(Nc2nccc(-n3nc(NC)c4ccsc43)n2)c(OC)cc1N(C)CCN(C)C [Example 23, N-(2-((2-(dimethylamino)ethyl)(methyl)amino)-4-methoxy-5-((4-(3-(methylamino)-1H-thieno[2,3-c]pyrazol-1-yl)pyrimidin-2-yl)amino)phenyl)acrylamide]
H1975 cells
  IC50: 7.35 nM
A431 cells
  IC50: 566 nM
PC-9 cells
  IC50: 3.87 nM

## C=CC(=O)Nc1cc(Nc2nccc(-n3nc(NC)c4cc(Cl)sc43)n2)c(OC)cc1N(C)CCN(C)C [Example 24, N-(5-((4-(5-chloro-3-(methylamino)-1H-thieno[2,3-c]pyrazol-1-yl)pyrimidin-2-yl)amino)-2-((2-(dimethylamino)ethyl)(methyl)amino)-4-methoxyphenyl)acrylamide]
H1975 cells
  IC50: 2.43 nM
A431 cells
  IC50: 217 nM
PC-9 cells
  IC50: 1.57 nM

## C=CC(=O)Nc1cc(Nc2nccc(-c3cccc4c3ccn4C)n2)c(OC)cc1N(C)CCN(C)C [Example 25, N-(2-((2-(dimethylamino)ethyl)(methyl)amino)-4-methoxy-5-((4-(1-methyl-1H-indol-4-yl)pyrimidin-2-yl)amino)phenyl)acrylamide]
H1975 cells
  IC50: 12.6 nM
A431 cells
  IC50: 1130 nM
PC-9 cells
  IC50: 16.2 nM

## [2H]C([2H])([2H])N(CCN(C)c1cc(OC)c(Nc2nccc(-c3cc(C#N)c4c(c3)c(C)cn4C)n2)cc1NC(=O)C=C)C([2H])([2H])[2H] [Example 27, N-(2-((2-(Bis(methyl-d3)amino)ethyl)(methyl)amino)-5-((4-(7-cyano-1,3-dimethyl-1H-indol-5-yl)pyrimidin-2-yl)amino)-4-methoxyphenyl)acrylamide mesylate]
H1975 cells
  IC50: 2.26 nM
Mouse in vivo PK study [5]
  F: 31.4%
  AUC: 297 ng·h/mL
  clearance: 60.7 mL/min/kg
  half-life: 1.76 h
Mouse in vivo PK study [6]
  AUC: 1040 ng·h/mL
  Cmax: 99 ng/mL
  half-life: 3.65 h

## C=CC(=O)Nc1cc(Nc2nccc(-c3cc(C#N)c4c(c3)c(C)cn4C)n2)c(OC)cc1NCCN(C)C [Example 28, N-(5-((4-(7-cyano-1,3-dimethyl-1H-indol-5-yl)pyrimidin-2-yl)amino)-2-((2-(dimethylamino)ethyl)amino)-4-methoxyphenyl)acrylamide]
H1975 cells
  IC50: 13.6 nM
A431 cells
  IC50: 912 nM
PC-9 cells
  IC50: 81.4 nM

## C=CC(=O)Nc1cc(Nc2nccc(-c3cc(C#N)c4c(c3)c(C)cn4C)n2)c(OC)cc1N(C)CCNC [Example 29, N-(5-((4-(7-Cyano-1,3-dimethyl-1H-indol-5-yl)pyrimidin-2-yl)amino)-4-methoxy-2-(methyl(2-(methylamino)ethyl)amino)phenyl)acrylamide]
H1975 cells
  IC50: 23.6 nM
A431 cells
  IC50: 1370 nM
PC-9 cells
  IC50: 51.9 nM
